What was measured:
[1] = tested on: Asthmatic lung fibroblasts; test: TGF-β-induced fibrotic response (α-SMA expression) in asthmatic lung fibroblasts; type: cell-based; settings: Homo sapiens, Fibroblast; 2 ng/ml TGF-β1, 48 h; Western blot; read-out: Inhibition of α-SMA expression, EC50 (μM), Asthmatic lung fibroblasts
Protocol: Nontransformed, human fetal lung fibroblasts (HFL-1) were obtained from ATCC (Manassas, Va.) and maintained in F12K media containing 10% (v/v) charcoal-dextran treated, heat inactivated FBS (Omega Scientific, Tarzana, Calif.). Primary lung fibroblasts isolated from a patient diagnosed with asthma were obtained from Lonza (Allendale, N.J.) and maintained in FGM-2 fibroblast growth medium (Lonza). Cells were seeded at a density to provide 50-60% confluence after an overnight incubation at 37° C. in a humidified atmosphere at 5% CO2. […] Protein content was determined using the Bio-Rad Dc Protein kit (Bio-Rad Laboratories, Hercules, Calif.), and normalized prior to adding an equal volume of 2× Laemmli sample buffer (Sigma). Proteins in the whole cell lysates were resolved via SDS-PAGE gel electrophoresis, and α-SMA was detected via Western blot analysis using a rabbit anti-human α-SMA polyclonal antibody (Abcam, Cambridge, Mass.). α-SMA signal was normalized to the signal of β-actin as detected using mouse anti-human […] antibody (Cell Signaling Technology). DyLight 680 and 800 conjugated secondary antibodies were used and the infrared signals were detected using the Odyssey Imaging System (LI-COR Biotechnology, Lincoln, Nebr.).

[2] = molecular target: T1, BRD2 (Homo sapiens, UniProt P25440); test: Bromodomain binding assay: BRD2
T1 construct: read out by qPCR of the phage DNA
Protocol: T7 phage strains displaying bromodomains were grown in parallel in 24-well blocks in an E. coli host derived from the BL21 strain. E. coli were grown to log-phase and infected with T7 phage from a frozen stock (multiplicity of infection=0.4) and incubated with shaking at 32° C. until lysis (90-150 minutes). The lysates were centrifuged (5,000×g) and filtered (0.2 μm) to remove cell debris. […] The liganded beads were blocked with excess biotin and washed with blocking buffer (SeaBlock (Pierce), 1% BSA, 0.05 Tween 20, 1 mM DTT) to remove unbound ligand and to reduce non-specific phage binding. […] Test compounds (T62 and 46) were prepared as 1000× stocks in 100% DMSO and subsequently diluted 1:10 in monoethylene glycol (MEG) to create stocks at 100× the screening concentration (resulting stock solution is 10% DMSO/90% MEG). The compounds were then diluted directly into the assays such that the final concentration of DMSO and MEG were 0.1% and 0.9%, respectively. All reactions were performed in polystyrene 96-well plates in a final volume of 0.135 ml. […] The bromodomain concentration in the eluates was measured by qPCR. Compounds were assayed for binding activity against a panel of 40 bromodomain-containing proteins.

T1 sequence (P25440 whole entry): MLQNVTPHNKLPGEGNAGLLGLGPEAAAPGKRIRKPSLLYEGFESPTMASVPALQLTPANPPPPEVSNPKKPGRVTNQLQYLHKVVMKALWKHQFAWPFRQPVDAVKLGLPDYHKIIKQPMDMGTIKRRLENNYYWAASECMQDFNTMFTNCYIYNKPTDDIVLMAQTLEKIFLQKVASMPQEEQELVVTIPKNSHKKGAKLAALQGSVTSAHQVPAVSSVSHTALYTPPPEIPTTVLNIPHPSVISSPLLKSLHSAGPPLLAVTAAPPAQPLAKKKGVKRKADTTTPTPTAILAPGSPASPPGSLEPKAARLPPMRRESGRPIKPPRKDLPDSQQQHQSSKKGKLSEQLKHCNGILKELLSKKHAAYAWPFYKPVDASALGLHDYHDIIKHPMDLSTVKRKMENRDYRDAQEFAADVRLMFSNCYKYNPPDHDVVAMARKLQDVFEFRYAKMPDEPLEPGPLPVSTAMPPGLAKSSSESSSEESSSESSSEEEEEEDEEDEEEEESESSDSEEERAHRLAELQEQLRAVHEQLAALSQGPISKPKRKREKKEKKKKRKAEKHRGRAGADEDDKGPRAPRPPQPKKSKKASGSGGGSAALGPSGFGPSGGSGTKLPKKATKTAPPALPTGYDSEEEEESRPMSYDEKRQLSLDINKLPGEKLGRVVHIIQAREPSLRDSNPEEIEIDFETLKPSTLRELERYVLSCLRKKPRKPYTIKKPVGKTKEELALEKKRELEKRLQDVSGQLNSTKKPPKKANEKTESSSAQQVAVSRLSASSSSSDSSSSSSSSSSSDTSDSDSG

| SMILES | EC50 [1] | Kd [2] |
| --- | --- | --- |
| CCOc1cc(C(=O)N2CC[C@@H](N(C)C)C2)ccc1Nc1cc2c(cn1)N(C)C(=O)c1ccccc1N2C [Compound 115] | 1.37 µM | – |
| CCOc1cc(C(=O)N[C@H]2CC[C@H](O)CC2)ccc1Nc1cc2c(cn1)N(C)C(=O)c1ccccc1N2C [Compound T62] | – | 93 nM |
